Laboratory results: patent US7268162B2, “Aloe-emodin derivatives and their use in the treatment of neoplasias” (Universita' Degli Studi di Padova, priority 2001, dated 2007)
Counter-ions that a name gives are not always drawn.

What was measured:
[1] = water and physiological solution; cited from earlier work
[2] = system: tumour cells of neuroectodermal origin; conditions: Italian patent application No. MI 2000A001216; cited from earlier work
SJ-N-KP [3] = test: In vitro cytotoxicity assay (MTT), neuroblastoma SJ-N-KP; assay type: cell-based, human; conditions: 72 hrs exposure, medium with 10% inactivated FBS
Description: (§1) In vitro cytotoxicity assays were conducted on different tumour cell lines, also of neuroectodermal origin. Purpose of said assays was also to check the compounds cytotoxic action and specificity. […] The aforesaid cells were assayed with the following compounds: • AM: ester of maleic acid (ex. 1) dissolved in DMSO • AS: ester of succinic acid (ex. 2) dissolved in DMSO • ADG: ester of diglycolic acid (ex. 3) dissolved in DMSO • AF: ester of phthalic acid (ex. 4) dissolved in DMSO • ABT: […] AE phosphoric ester (ex.12) dissolved in HEPES • AED: AE acetal with daunosamine (ex.13) dissolved in HEPES The cells, cultured according to known methods, were seeded 24 hrs prior to treatment with the various derivatives at a concentration of 1000 cells/100 μl. For molecules dissolved in dimethylsulphoxide, DMSO, the concentration of the initial stock was 200 mM and for molecules dissolved in a HEPES buffer and in the physiological solution was 1 mM. […] For each assay, a control was carried out with the medium alone (RPMI with 10% inactivated fetal bovine serum, FBS, and 1% penicillin/streptomycin). […] The cells viability was assessed by the MTT dye assay. […] The EC50 values (μM) referred to each compound and cell line are given.

IMR5 [4] = test: In vitro cytotoxicity assay (MTT), neuroblastoma IMR-5; assay type: cell-based, human; conditions: medium with 10% inactivated FBS
Description: as §1

LoVo 109 [5] = test: In vitro cytotoxicity assay (MTT), colon adenocarcinoma LoVo 109; assay type: cell-based, human; conditions: 72 hrs exposure, medium with 10% inactivated FBS
Description: as §1

SJ-N-KP [6] = test: In vitro cytotoxicity assay (MTT), neuroblastoma SJ-N-KP; assay type: cell-based, human; conditions: 72 hrs exposure, medium with non-inactivated FBS (esterase)
IMR5 [7] = test: In vitro cytotoxicity assay (MTT), neuroblastoma IMR-5; assay type: cell-based, human; conditions: 72 hrs exposure, medium with non-inactivated FBS (esterase)
LoVo 109 [8] = test: In vitro cytotoxicity assay (MTT), colon adenocarcinoma LoVo 109; assay type: cell-based, human; conditions: 72 hrs exposure, medium with non-inactivated FBS (esterase)

Compound | EC50 (SJ-N-KP [3]) [µM] | EC50 (IMR5 [4]; 72 hrs exposure) [µM] | EC50 (LoVo 109 [5]) [µM] | other results
O=C1c2cccc(O)c2C(=O)c2c(O)cc(CO)cc21 [Aloe-emodin, aloe-emodin] |  |  |  | solubility [1]: hardly soluble in water and in the physiological solution; cytotoxicity [2]: specific cytotoxicity to tumour cells of neuroectodermal origin
O=C(O)C=CC(=O)OCc1cc(O)c2c(c1)C(=O)c1cccc(O)c1C2=O [Ex. 1: AM, mono-(4,5-dihydroxy-9,10-dioxo-9,10-dihydroanthracen-2-ylmethyl)ester but-2-endioic acid] | 270 to 280 | 270 to 280 |  | 
O=C(O)CCC(=O)OCc1cc(O)c2c(c1)C(=O)c1cccc(O)c1C2=O [Ex. 2: AS, mono-(4,5-dihydroxy-9,10-dioxo-9,10-dihydroanthracen-2-ylmethyl)ester succinic acid] | 43 | 40 | 43 | 
O=C(O)COCC(=O)OCc1cc(O)c2c(c1)C(=O)c1cccc(O)c1C2=O [Ex. 3: ADG, (4,5-Dihydroxy-9,10-dioxo-9,10-dihydroanthracen-2-ylmethoxycarbonylmethoxy) acetic acid] |  |  |  | EC50 (SJ-N-KP [3]; Homo sapiens): 10 µM; EC50 (IMR5 [4]; Homo sapiens, IMR-5, 72 hrs exposure): 10 µM; EC50 (LoVo 109 [5]; Homo sapiens, LoVo): 20 µM
O=C(O)c1ccccc1C(=O)OCc1cc(O)c2c(c1)C(=O)c1cccc(O)c1C2=O [Ex. 4: AF, mono-(4,5-dihydroxy-9,10-dioxo-9,10-dihydroanthracen-2-ylmethyl)ester phthalic acid] | 300 | 250 |  | EC50 (SJ-N-KP [6]): 50 µM; EC50 (IMR5 [7]): 50 µM; EC50 (LoVo 109 [8]): 50 µM
O=C(O)c1ccc(C(=O)OCc2cc(O)c3c(c2)C(=O)c2cccc(O)c2C3=O)c(C(=O)O)c1 [Ex. 5: ABT, 1-(4,5-dihydroxy-9,10-dioxo-9,10-dihydroanthracen-2-ylmethyl)ester 1,2,4-Benzenetricarboxylic acid] | 150 | 160 |  | 
N[C@@H](Cc1c[nH]c2ccccc12)C(=O)OCc1cc(O)c2c(c1)C(=O)c1cccc(O)c1C2=O [Ex. 6: TRIP, AE Ester with Tryptophan] | 8 to 9 | 10 | 8 to 9 | 
CC(N)C(=O)OCc1cc(O)c2c(c1)C(=O)c1cccc(O)c1C2=O (centres unmarked) [Ex. 7: ALA-NH2, AE Ester with Alanine] | 264 | 300 |  | 
CC[C@H](C)[C@H](N)C(=O)OCc1cc(O)c2c(c1)C(=O)c1cccc(O)c1C2=O [Ex. 8: PJ8, AE Ester with Isoleucine] | 9 | 9 | 20 | 
NC(Cc1ccc(O)cc1)C(=O)OCc1cc(O)c2c(c1)C(=O)c1cccc(O)c1C2=O (centres unmarked) [Ex. 9: TIR-NH2, AE Ester with Tyrosine] | 96.4 |  | 26 | 
C[C@H](N)C(=O)OCc1cc(O)c2c(c1)C(=O)c1cccc(O)c1C2=O [Ex. 10: EM9, ala-aloe-emodin trifluoroacetate] | 6.7 | 6.7 | 5 | 
C[C@H](N)C(=O)OCc1cc(O)c2c(c1)C(=O)c1cccc(O)c1C2=O [Ex. 11: ALA, ala-aloe-emodin hydrochloride] |  |  | 200 | EC50 (SJ-N-KP [3]; hydrochloride): 200 µM; EC50 (SJ-N-KP [3]; listed as Ex. 11: ALA-HCI, hydrochloride): 70.6 µM; EC50 (IMR5 [4]; 72 hrs exposure, hydrochloride): 200 µM; EC50 (IMR5 [4]; 72 hrs exposure, listed as Ex. 11: ALA-HCI, hydrochloride): 70.6 µM
O=C1c2cccc(O)c2C(=O)c2c(O)cc(COP(=O)(O)O)cc21 [Ex. 12: AEP, AE Ester with Phosphoric Acid] | 12 | 10 | 20 | 
AE Acetal with Daunosamine [Ex. 13: AED] | 5 | 5 | 10 | 
